# Earlier results, collected in patent US11744878B2 (priority 2020, dated 2023).
# Where no end group is shown, it is not given here.
# Key:
# [1] = tested on: COVID-19; settings: most critically ill patients with COVID-19; cited from earlier work
# [2] = tested on: SARS coronavirus; settings: cited from earlier work
# [3] = in vivo; cited from earlier work
# [4] = tested on: pancreas; settings: cited from earlier work
compound,measurement,setting,value
"CC[C@H](C)[C@H](NC(=O)[C@H](CO)NC(=O)[C@H](CC(N)=O)NC(=O)[C@H](CC(C)C)NC(=O)[C@H](Cc1ccc(O)cc1)NC(=O)[C@H](CCCCN)NC(=O)[C@H](CCCCN)NC(=O)[C@@H](NC(=O)[C@H](C)NC(=O)[C@H](CCSC)NC(=O)[C@H](CCC(N)=O)NC(=O)[C@H](CCCCN)NC(=O)[C@H](CCCNC(=N)N)NC(=O)[C@H](CC(C)C)NC(=O)[C@H](CCCNC(=N)N)NC(=O)[C@@H](NC(=O)[C@H](Cc1ccc(O)cc1)NC(=O)[C@H](CC(N)=O)NC(=O)[C@H](CC(=O)O)NC(=O)[C@@H](NC(=O)[C@H](Cc1ccccc1)NC(=O)[C@@H](NC(=O)[C@H](C)NC(=O)[C@H](CC(=O)O)NC(=O)[C@H](CO)NC(=O)[C@@H](N)Cc1c[nH]cn1)C(C)C)[C@@H](C)O)[C@@H](C)O)C(C)C)C(=O)N[C@@H](CC(C)C)C(=O)N[C@@H](CC(N)=O)C(N)=O [RLF-100, aviptadil]",recovery from respiratory failure,[1],rapid recovery from respiratory failure
same,replication of the SARS coronavirus,[2],blocked replication
"secretin (HSDGTFTSELSRLRDSARLQRLLQGLV; not fully specified (C-terminus); ends and bridges not checked; UniProt P63298 33-59, looked up) [3055.5 MW (27 amino acid) gastrointestinal peptide hormone originally extracted from the porcine duodenum]",crossing of the blood-brain barrier,[3],rapidly crosses the blood-brain barrier
same,distribution in the body,[3],highly and rapidly distributed
same,pancreatic duct diameter,[4]; in vivo,increases the pancreatic duct diameter
same,sphincter of Oddi,[4]; in vivo,causes sphincter of Oddi relaxation
same,volume and bicarbonate content of pancreatic juice,[4]; primary action,increase the volume and bicarbonate content
"synthetic porcine secretin: new synthetic porcine secretin, manufactured by ChiRhoClin, Inc. (HSDGTFTSELSRLRDSARLQRLLQGLV; not fully specified (C-terminus); ends and bridges not checked; UniProt P63298 33-59, looked up)",effectiveness as a pancreatic secretagogue,[4]; compared with secretin extracted from porcine duodenum,equally effective
